Source: patent US8927500B2, “Peptidomimetic macrocycles” (Aileron Therapeutics, Inc., priority 2012, dated 2015)
Where a SMILES comes first, the peptide text is derived from it. Bridges are numbered along the chain shown (N, C = ends). [ ]: non-standard residue; d: D form. Phe(4-COOH) = N[C@@H](Cc1ccc(C(=O)O)cc1)C(=O)O; R8 = C=CCCCCCC[C@@](C)(N)C(=O)O; Cba = N[C@@H](CC1CCC1)C(=O)O; S5 = C=CCCC[C@](C)(N)C(=O)O

Legend:
[1] = MCF-7 xenograft study, body weight, deaths and tolerability; type: in vivo, mice
Source text: A negative control stapled peptide.

SJSA-1 cells = assay: Cell viability assay (MTT), SJSA-1; conditions: in words
[2] = system: MCF-7 breast cancer xenograft; assay: MCF-7 breast cancer xenograft study, tumor growth inhibition; conditions: 30 mg/kg 3×/wk iv
Procedure: This formulation was prepared once for the duration of the study.
Each group was assigned to a different treatment regimen.
During the dosing period the mice were weighed and tumors measured 1-2 times per week.

Row | Structure (SMILES) | mice died during treatment ([1]; […] 3×/wk iv, 10 mice per group) | % BW Change ([1]; 30 mg/kg 3×/wk iv) | No. with ≧10% BW Loss ([1]; 30 mg/kg 3×/wk iv) | No. with ≧20% BW Loss or death ([1]; 30 mg/kg 3×/wk iv) | tolerability of dosing regimen ([1]; 30 mg/kg 3×/wk iv, in words) | activity in the SJSA-1 in vitro viability assay (SJSA-1 cells) | activity in in vitro assays (SJSA-1 cells; in vitro assays not specified) | TGI by Day 32 [2]
1 | CC[C@H](C)[C@H](NC(=O)[C@H](C)NC(=O)[C@H](C)NC(=O)[C@]1(C)CCC/C=C/CCCCCC[C@@](C)(NC(=O)[C@H](Cc2ccccc2)NC(=O)[C@@H](NC(=O)[C@H](CC(C)C)NC(C)=O)[C@@H](C)O)C(=O)N[C@@H](CCC(=O)O)C(=O)N[C@@H](Cc2ccc(C(=O)O)cc2)C(=O)N[C@@H](Cc2c[nH]c3ccccc23)C(=O)N[C@@H](C)C(=O)N[C@@H](CCC(N)=O)C(=O)N[C@@H](CC2CCC2)C(=O)N1)C(=O)N[C@H](C)C(N)=O [SP249, Ac-L T F $er8 E F4coohWAQCba $e AA-I-a-NH2] (Ac-LTF[R8]E[Phe(4-COOH)]WAQ[Cba][S5]AAI[dA]-NH2; staple (E) 4-11) | 4 |  |  |  |  |  |  | 
2 | CC(=O)N[C@@H](CC(C)C)C(=O)N[C@H](C(=O)N[C@@H](C)C(=O)N[C@]1(C)CCCCCCC=CCCC[C@@](C)(C(=O)N[C@@H](CO)C(=O)N[C@@H](C)C(=O)N[C@@H](C)C(N)=O)NC(=O)[C@H](CC2CCC2)NC(=O)[C@H](CCC(N)=O)NC(=O)[C@H](C)NC(=O)[C@H](Cc2c[nH]c3ccccc23)NC(=O)[C@H](Cc2ccc(O)cc2)NC(=O)[C@H](CCC(=O)O)NC1=O)[C@@H](C)O [SP252] |  | +3.3% | 0/10 | 0/10 | well-tolerated | no activity | no appreciable activity | 88%
